For one test, the target named is T1, human NMB receptor (BB1) (Homo sapiens, UniProt P28336).
T1 construct: expressed in transfected cells; membranes prepared from the cells
In words: BB1 binding assay ([125I][Tyr4]bombesin displacement, CHO-K1 membranes). On the procedure:
(§1) In the following experiments, measurement of BB1 and BB2 binding was as follows. CHO-K1 cells stably expressing cloned human NMB (for (BB1 assay) and GRP receptors (for BB2 assay) were routinely grown in Ham's F12 culture medium supplemented with 10% foetal calf serum and 2 mM glutamine. For binding experiments, cells were harvested by trypsinization, and stored frozen at −70° C. in Ham's F12 culture medium containing 5% DMSO until required. On the day of use, cells were thawed rapidly, diluted with an excess of culture medium, and centrifuged for 5 minutes at 2000 g. Cells were resuspended in 50 mM Tris-HCl assay buffer (pH 7.4 at 21° C., containing 0.02% BSA, 40 μg/mL bacitracin, 2 μg/mL chymostatin, 4 μg/mL leupeptin, and 2 μM phosphoramidon), counted, and polytronned (setting 5, 10 sec) before centrifuging for 10 minutes at 28,000 g. The final pellet was resuspended in assay buffer to a final cell concentration of 1.5×10^5/mL. For binding assays, […] aliquots of membranes were incubated with [^125I][Tyr^4]bombesin (<0.1 nM) in the presence and absence of test compounds (final assay volume 250 μL) for 60 minutes and 90 minutes for NMB and GRP receptors, respectively. Nonspecific binding was defined by 1 μM bombesin. Assays were terminated by rapid filtration under vacuum onto Whatman GF/C filters presoaked in 0.2% PEI for >2 hours, and washed 50 mM Tris-HCl (pH 6.9 at 21° C.; 6×1 mL). Radioactivity bound was determined using a gamma counter.
(§2) All competition data was analysed using nonlinear regression utilizing iterative curve-plotting procedures in Prism® (GraphPad Software Inc., San Diego, USA). IC50 values were corrected to Ki values using the Cheng-Prusoff equation (Cheng Y., Prusoff W. H., Biochem. Pharmacol. 22: 3099-3108, 1973). obtained are listed in Table 1.

In the next test the target is T2, human GRP receptor (BB2) (Homo sapiens, UniProt P30550).
T2 construct: expressed in transfected cells; membranes prepared from the cells
In words: BB2 binding assay ([125I][Tyr4]bombesin displacement, CHO-K1 membranes). On the procedure: as §1, §2

[1] abbreviates: Table 3, N-acyl derivatives of Intermediate III-7.
[2] abbreviates: second 'TABLE 4', N-terminal urethane derivatives of Intermediate III-7.

Like-named read-outs stand apart in the source and are kept apart here.

T2 sequence (P30550 whole entry): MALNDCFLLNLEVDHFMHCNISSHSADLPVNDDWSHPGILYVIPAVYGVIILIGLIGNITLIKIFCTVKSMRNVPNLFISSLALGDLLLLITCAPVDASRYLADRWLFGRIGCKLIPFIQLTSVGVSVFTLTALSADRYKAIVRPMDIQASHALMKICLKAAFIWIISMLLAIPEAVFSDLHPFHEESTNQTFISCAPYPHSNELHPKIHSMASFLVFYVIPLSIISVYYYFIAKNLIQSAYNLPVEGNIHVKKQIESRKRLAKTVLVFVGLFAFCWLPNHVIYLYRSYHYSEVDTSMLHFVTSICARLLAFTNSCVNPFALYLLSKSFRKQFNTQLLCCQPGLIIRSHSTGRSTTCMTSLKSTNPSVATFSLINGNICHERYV
T1 sequence (P28336 whole entry): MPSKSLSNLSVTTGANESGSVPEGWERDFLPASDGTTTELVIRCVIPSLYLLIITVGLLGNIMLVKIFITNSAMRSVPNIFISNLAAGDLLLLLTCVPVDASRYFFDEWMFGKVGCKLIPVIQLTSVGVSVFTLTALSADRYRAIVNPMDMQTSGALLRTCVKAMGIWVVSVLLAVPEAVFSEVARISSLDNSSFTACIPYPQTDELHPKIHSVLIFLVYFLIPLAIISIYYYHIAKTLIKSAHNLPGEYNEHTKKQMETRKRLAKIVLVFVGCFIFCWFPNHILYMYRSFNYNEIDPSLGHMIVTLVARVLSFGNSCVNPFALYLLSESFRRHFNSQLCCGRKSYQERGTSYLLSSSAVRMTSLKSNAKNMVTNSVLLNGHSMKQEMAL

For orientation: IC50 means the concentration that gives 50% inhibition. A low value points to greater potency in that assay. With `C[C@@](Cc1c[nH]c2ccccc12)(NC(=O)c1cccc2[nH]ccc12)C(=O)NCC1(c2ccccn2)CCCCC1` [Example 68, 1H-Indole-4-carboxylic acid {(S)-2-(1H-indol-3-yl)-1-methyl-1-[(1-pyridin-2-yl-cyclohexylmethyl)-carbamoyl]-ethyl}-amide], the IC50 is 4.5 µM at human NMB receptor (BB1) (setting [1]) and over 10 µM at human GRP receptor (BB2) (setting [1]). `Cc1cccc(COC(=O)N[C@@](C)(Cc2c[nH]c3ccccc23)C(=O)NCC2(c3ccccn3)CCCCC2)c1` [Example 105, {(S)-2-(1H-Indol-3-yl)-1-methyl-1-[(1-pyridin-2-yl-cyclohexylmethyl)-carbamoyl]-ethyl}-carbamic acid 3-methyl-benzyl ester]: the 50% inhibitory concentration (IC50) was 0.841 µM at human NMB receptor (BB1) (setting [2]) and over 10 µM on human GRP receptor (BB2) (setting [2]). Regarding `C[C@@](Cc1c[nH]c2ccccc12)(NC(=O)c1ncoc1-c1ccccc1)C(=O)NCC1(c2ccccn2)CCCCC1` [Example 80, 5-Phenyl-oxazole-4-carboxylic acid {(S)-2-(1H-indol-3-yl)-1-methyl-1-[(1-pyridin-2-yl-cyclohexylmethyl)-carbamoyl]-ethyl}-amide], the IC50 at human NMB receptor (BB1) (setting [1]) was 2.66 µM; on human GRP receptor (BB2) (setting [1]), over 10 µM. Take `C[C@@](Cc1c[nH]c2ccccc12)(NC(=O)c1ccc(S(C)(=O)=O)cc1)C(=O)NCC1(c2ccccn2)CCCCC1` [Example 37, N—{(S)-2-(1H-Indol-3-yl)-1-methyl-1-[(1-pyridin-2-yl-cyclohexylmethyl)-carbamoyl]-ethyl}-4-methanesulfonyl-benzamide]: the IC50 on human NMB receptor (BB1) (setting [1]) is 2.27 µM; on human GRP receptor (BB2) (setting [1]), over 10 µM. `C[C@@](Cc1c[nH]c2ccccc12)(NC(=O)c1ccc2ncsc2c1)C(=O)NCC1(c2ccccn2)CCCCC1` [Example 72, Benzothiazole-6-carboxylic acid {(S)-2-(1H-indol-3-yl)-1-methyl-1-[(1-pyridin-2-yl-cyclohexylmethyl)-carbamoyl]-ethyl}-amide]: the IC50 at human NMB receptor (BB1) (setting [1]) was determined as 0.897 µM; at human GRP receptor (BB2) (setting [1]) it was 1.49 µM.

Turning to `C[C@@](Cc1c[nH]c2ccccc12)(NC(=O)c1cccs1)C(=O)NCC1(c2ccccn2)CCCCC1` [Example 64, Thiophene-2-carboxylic acid {(S)-2-(1H-indol-3-yl)-1-methyl-1-[(1-pyridin-2-yl-cyclohexylmethyl)-carbamoyl]-ethyl}-amide], the results for the IC50 on human NMB receptor (BB1) (setting [1]) and at human GRP receptor (BB2) (setting [1]) were 1.44 µM and over 10 µM, respectively.

Turning to `Cc1ccc(S(=O)(=O)N[C@@](C)(Cc2c[nH]c3ccccc23)C(=O)NCC2(c3ccccn3)CCCCC2)cc1Cl` [Example 158], the IC50 on human NMB receptor (BB1) amounted to 0.299 µM; on human GRP receptor (BB2), 3.94 µM.

On to `CC(C)(C)c1ccc(COC(=O)N[C@@](C)(Cc2c[nH]c3ccccc23)C(=O)NCC2(c3ccccn3)CCCCC2)cc1` [Example 98, {(S)-2-(1H-Indol-3-yl)-1-methyl-1-[(1-pyridin-2-yl-cyclohexylmethyl)-carbamoyl]-ethyl}-carbamic acid 4-tert-butyl-benzyl ester], for which the IC50 at human NMB receptor (BB1) (setting [2]) was 1.99 µM; on human GRP receptor (BB2) (setting [2]), over 10 µM. For `Cc1cccc(S(=O)(=O)N[C@@](C)(Cc2c[nH]c3ccccc23)C(=O)NCC2(c3ccccn3)CCCCC2)c1` [Example 131], the figures for the IC50 on human NMB receptor (BB1) and on human GRP receptor (BB2) were 0.393 µM and 1.02 µM, respectively. On to `C[C@@](Cc1c[nH]c2ccccc12)(NC(=O)c1ccncc1)C(=O)NCC1(c2ccccn2)CCCCC1` [Example 58], for which the IC50 is 1.36 µM at human NMB receptor (BB1) (setting [1]) and over 10 µM on human GRP receptor (BB2) (setting [1]). The corresponding values for `C[C@@](Cc1c[nH]c2ccccc12)(NC(=O)Cc1cccc(O)c1)C(=O)NCC1(c2ccccn2)CCCCC1` [Example 53, (S)-2-[2-(3-Hydroxy-phenyl)-ethanoylamino]-3-(1H-indol-3-yl)-2-methyl-N-(1-pyridin-2-yl-cyclohexylmethyl)-propionamide] are 1.44 µM and over 10 µM. For the molecule `C[C@@](Cc1c[nH]c2ccccc12)(NC(=O)c1ccc(Cl)cc1)C(=O)NCC1(c2ccccn2)CCCCC1` [Example 34, 4-Chloro-N—{(S)-2-(1H-indol-3-yl)-1-methyl-1-[(1-pyridin-2-yl-cyclohexyl-methyl)-carbamoyl]-ethyl}-benzamide], the IC50 on human NMB receptor (BB1) (setting [1]) was 1.35 µM; at human GRP receptor (BB2) (setting [1]), over 10 µM. Consider `Cc1ccc(C(=O)N[C@@](C)(Cc2c[nH]c3ccccc23)C(=O)NCC2(c3ccccn3)CCCCC2)cc1` [Example 33, N—{(S)-2-(1H-Indol-3-yl)-1-methyl-1-[(1-pyridin-2-yl-cyclohexylmethyl)-carbamoyl]-ethyl}-4-methyl-benzamide], for which, on human GRP receptor (BB2) (setting [1]), the IC50 is over 10 µM. As for `CC(Cc1c[nH]c2ccccc12)(NS(=O)(=O)c1cc(Cl)sc1Cl)C(=O)NCC1(c2ccccn2)CCCCC1` (centres unmarked) [Example 157], the IC50 at human GRP receptor (BB2) was over 10 µM. In turn, `C[C@@](Cc1c[nH]c2ccccc12)(NC(=O)c1ccccc1)C(=O)NCC1(c2ccccn2)CCCCC1` [Example 32, N—{(S)-2-(1H-Indol-3-yl)-1-methyl-1-[(1-pyridin-2-yl-cyclohexylmethyl)-carbamoyl]-ethyl}-benzamide] showed an IC50 at human GRP receptor (BB2) (setting [1]) of over 10 µM. For the molecule `C[C@@](Cc1c[nH]c2ccccc12)(NS(=O)(=O)c1ccccc1F)C(=O)NCC1(c2ccccn2)CCCCC1` [Example 114], the IC50 at human NMB receptor (BB1) was determined as 0.267 µM. `C[C@@](Cc1c[nH]c2ccccc12)(NS(=O)(=O)c1ccc(-c2ccon2)s1)C(=O)NCC1(c2ccccn2)CCCCC1` [Example 141] showed an IC50 on human NMB receptor (BB1) of 0.534 µM. On the same count and under the same terms, the same measure for `C[C@@](Cc1c[nH]c2ccccc12)(NS(=O)(=O)c1ccccc1C#N)C(=O)NCC1(c2ccccn2)CCCCC1` [Example 134]: 0.408 µM. The molecule “Dimethylamino-N—{(S)-2-(1H-indol-3-yl)-1-methyl-1-[(1-pyridin-2-yl-cyclohexyl-methyl)-carbamoyl]-ethyl}-benzamide [Example 42]” registered an IC50 on human GRP receptor (BB2) (setting [1]) of over 10 µM. On human NMB receptor (BB1), `C[C@@](Cc1c[nH]c2ccccc12)(NS(=O)(=O)c1ccc([N+](=O)[O-])cc1)C(=O)NCC1(c2ccccn2)CCCCC1` [Example 123] yielded an IC50 of 0.515 µM. That is a sub-micromolar value. Still for that read-out and setting: the same measure for `C[C@@](Cc1c[nH]c2ccccc12)(NS(=O)(=O)c1ccc(OC(F)(F)F)cc1)C(=O)NCC1(c2ccccn2)CCCCC1` [Example 151]: 0.635 µM. As for `C[C@@](Cc1c[nH]c2ccccc12)(NC(=O)c1cc2ccccc2cn1)C(=O)NCC1(c2ccccn2)CCCCC1` [Example 77, Isoquinoline-3-carboxylic acid {(S)-2-(1H-indol-3-yl)-1-methyl-1-[(1-pyridin-2-yl-cyclohexylmethyl)-carbamoyl]-ethyl}-amide], on human NMB receptor (BB1) (setting [1]), the IC50 was found to be 1.36 µM. In turn, `COc1ccc(S(=O)(=O)N[C@@](C)(Cc2c[nH]c3ccccc23)C(=O)NCC2(c3ccccn3)CCCCC2)cc1OC` [Example 132] gave an IC50 at human NMB receptor (BB1) of 0.608 µM. Still for that read-out and setting: next, `C[C@@](Cc1c[nH]c2ccccc12)(NS(=O)(=O)c1ccc(Cl)c(Cl)c1)C(=O)NCC1(c2ccccn2)CCCCC1` [Example 125]: 0.216 µM; `C[C@@](Cc1c[nH]c2ccccc12)(NS(=O)(=O)c1cccc(C#N)c1)C(=O)NCC1(c2ccccn2)CCCCC1` [Example 143]: 0.46 µM. Broadly, the Ki is a dissociation constant, usually derived from enzyme kinetics or from competition with a known ligand. Take `C[C@@](Cc1c[nH]c2ccccc12)(NCc1cc2ccccc2o1)C(=O)NCC1(c2ccccn2)CCCCC1` [Example 26]: on human NMB receptor (BB1) (Table 1, human NMB receptor binding affinity, Ki from IC50 by Cheng-Prusoff, read-out: NMB Ki), the Ki was 2.4 µM.

(Values after patent US20020169101A1, “Treatment of sexual dysfunction” (priority 1999, published 2002).)
